Experimental findings from patent US12433872B2, “Treatment of Acanthamoeba or Balamuthia trophozoites and/or cysts” (GEORGIA STATE UNIVERSITY RESEARCH FOUNDATION, INC., priority 2018, dated 2025) are described below.

Like-named read-outs stand apart in the source and are kept apart here.

As usually defined, the IC50 is the concentration that gives 50% inhibition.

Common to all, as to format: cell-based
For test [1], the system named is Balamuthia mandrillaris trophozoites. Description: Activity against Balamuthia mandrillaris trophozoites. The following applies: Balamuthia mandrillaris, read-out: Balamuthia mandrillaris IC50. As for the experimental part:
Balamuthia mandrillaris trophozoites were thawed and grown in 10 ml of BM-3 medium. […] After autoclaving, complete BM-3 media was produced by the addition of 10% fetal bovine serum and 125 μg of penicillin/streptomycin antibiotics. The table describes all of the compounds and the activity against Balamuthia trophozoites compared to the activity for select Acanthamoeba trophozoites shown in Table 5.

Test [2] has as its system Acanthamoeba culbertsoni (ATCC30171) cysts. Put plainly: Encystation drug susceptibility / excystation viability assay, 30 day recovery, A. culbertsoni cysts. As to conditions: ATCC30171, 720 h, read-out: A. culbertsoni 30 day MCC. On the procedure: (§1) The trophozoites of Acanthamoeba were harvested by mechanical detachment and collected via centrifugation at 4000 rpm at 4° C. for 5 minutes. The trophozoites were washed in 10 mL of Neff's Encystment Media (NEM). NEM composition is 20 mM Tris-HCL [pH 8.8] (2.43 g/L), 100 mM KCL (7.46 g/L), 8 mM MgSO4 (962.96 mg/L), 0.4 mM CaCL2 58.81 mg/L) and 1 mM NaHCO3 (84.01 mg/L) (Neff et al. 1964). All reagents were bought from Sigma Aldrich. Centrifugation of the trophozoites was repeated to ensure any residual growth medium was removed. The pellet was resuspended in a final volume of 15 mL of NEM, cultured in 75 cm^2 corning tissue culture flasks and incubated vertically in a thermal shaker, shaken at 100 rpm at 37° C. for 72 hours to produce fully matured cysts. NEM was supplemented with 250 μg of penicillin/streptomycin. Fresh cysts were produced each time for any experimentation.
(§2) At 72 hours the cysts were harvested using a cell scraper and collected via centrifugation at 4000 rpm at 25° C. for 10 minutes. The cells were washed twice in 10 mL of HyClone™ water, Molecular Biology Grade, and centrifugation was repeated to ensure the removal of any residual NEM. The cell suspension was washed with 0.5% sodium dodecyl sulphate (SDS) to remove any remaining trophozoites and immature cysts. The fully mature cysts were further washed twice with 10 mL of HyClone™ water and 1% NEM, centrifugation was repeated to remove any residue of SDS. The concentration of mature cysts was determined using a haemocytometer and adjusted to 1×10^4 cysts/mL in NEM.
(§3) All test compounds were prepared as 5 mg/mL stock solutions in dimethylsulfoxide (DMSO). All compounds were diluted in NEM, serially diluted in 2-fold dilutions 6 or 11 times, yielding a screening concentration range of 1.56 μg/mL to 50 μg/mL or 48 ng/mL to 50 μg/mL with a final highest screening concentration of 1% DMSO.
(§4) Based on this, a strain specific test period and also a 30 day non-specific recovery time were considered. For the 30 day recovery period, the media was changed 5 times to ensure the contents of wells dis not evaporate and have an effect within the results of the assay.
(§5) 90 μL of 1×10^4 Cysts/ml and 10 μL of experimental compounds from the screening plates were produced according to the protocols above and combined into a Corning clear 96 well treated tissue culture plate. Control wells include cysts in non-drug treated, 1% DMSO, NEM (to be used for negative growth control), NEM Blank, PG blank and cysts in non-drug treated, 1% DMSO, PG (to excyst cells and to be used for positive growth control). The total well volume for all wells was 100 μL. The drug exposed plates were screened at 27° C. for 6 or 24 hours only. At the exposure time point the plates were centrifuged at 4000 rpm at 25° C. for 10 minutes and washed twice with phosphate-buffered saline (PBS) to remove any residual experimental compound.
(§6) Once the plate(s) underwent the Encystation drug susceptibility process, all wells except the negative growth control and NEM blank wells received PG growth medium. All plates were left to recover at 27° C. for the strain specific time period of 5, 9 or 11 days depending on the species of Acanthamoeba. At each of the strain specific time points the plates were removed from incubation and microscopically analysed (qualitatively) for the excystation process for the emergence of excysted viable trophozoites or residual cysts. The presence of excysted trophozoites indicated viable amoebae (non-cystistatic or cysticidal—no effect) and the absence of excystation was considered as cystistatic/cysticidal effects.

The next test concerns A549 cells. Description: Toxicity to human A549 cells.
Test [3] has as its system Acanthamoeba castellanii (ATCC50370) cysts. Description: Encystation drug susceptibility / excystation viability assay, 30 day recovery, A. castellanii cysts. The following applies: ATCC50370, 720 h, read-out: A. castellanii 30 day MCC. On the procedure:
as §1, §2, §3, §4, §5, §6

Test [4] concerns Acanthamoeba castellanii trophozoites. Description: Activity against Acanthamoeba castellanii trophozoites. On the procedure: Two Acanthamoeba species (Acanthamoeba castellanii—ATCC50370 and Acanthamoeba culbertsoni—ATCC30171) were bought from the American Type Culture Collection (ATCC) and one species (Acanthamoeba healyi) was donated from the Centers for Disease Control and Prevention (CDC) for our experimentations. Trophozoites were thawed and grown in 10 mL of a nutrient rich Peptose-Glucose (PG) media. The PG media composition is 83.26 mM Glucose (15 g/L), Protease Peptone (15 g/L, yeast extract is manufactured under controlled conditions to retain its vitamin content and other nutritive values such as free amino acids, no other composition information given), 2.2 mM KH2PO4 (300 mg/L), 2.97 μM Thiamine (1 mg/L), 99.86 μM L-methionine (14.9 mg/L), 4.6 μM Vitamin B12 (83.3 μl of 0.1 mg/mL stock/L) and 68 μM Biotin (83.3 μl of 0.2 mg/mL stock/L). […] One mL/L of the salt solution was added to the media stock prior to autoclaving. All reagents were purchased from Sigma Aldrich except the Glucose which was purchased from Alfa Aesar. The cell pellet was resuspended in a final volume of 10 mL of PG media, cultured in 75 cm^2 coming tissue culture flasks and incubated at 27° C. PG was supplemented with 125 μg of penicillin/streptomycin. Sub-culturing occurred twice per week to allow the continued growth and development of the Acanthamoeba trophozoites. […]

The subject of test [5] is Acanthamoeba healyi cysts. Put plainly: Encystation drug susceptibility / excystation viability assay, 30 day recovery, A. healyi cysts. The following applies: 720 h, read-out: A. healyi 30 day MCC. On the procedure:
as §1, §2, §3, §4, §5, §6

Where [6] appears, read: Homo sapiens, A549, read-out: A549 cell IC50.
The mark [7] stands for this setting: read-out: A. cactellanii Trophozoite IC50.
Where [8] appears, read: read-out: Acanthamoeba castellanii IC50.
[9] abbreviates: minimum cysticidal concentration, no recovery up to 30 days.
The mark [10] stands for this setting: trophozoites, n = 2, Table 6, read-out: Acanthamoeba castellanii IC50.

As for `CC(C)NC(=N)c1ccc2nc(-c3ccc(Oc4cc(F)c(-c5nc6ccc(C(=N)NC(C)C)cc6[nH]5)c(F)c4)cc3Br)[nH]c2c1` [Compound G, 2-(2-Bromo-4-(3,5-difluoro-4-(6-(N-isopropylcarbamimidoyl)-1H-benzo[d]imidazol-2-yl)phenoxy)phenyl)-N-isopropyl-1H-benzo[d]imidazole-6-carboximidamide], the IC50 in test [1] worked out at 110 nM; in the test on A549 cells (setting [6]) it was 6020 nM; in test [4] (setting [7]), 260 nM; in test [4] (setting [8]) it was 260 nM. Also, the MCC in test [2] was 1.75 µM; in test [3] it was 1.75 µM; in test [5], 1750 nM.
In the case of `CC(C)NC(=N)c1ccc2nc(-c3cc(F)c(Oc4ccc(-c5nc6ccc(C(=N)NC(C)C)cc6[nH]5)c(Br)c4)c(F)c3)[nH]c2c1` [Compound F, 2-(2-Bromo-4-(2,6-difluoro-4-(6-(N-isopropylcarbamimidoyl)-1H-benzo[d]imidazol-2-yl)phenoxy)phenyl)-N-isopropyl-1H-benzo[d]imidazole-6-carboximidamide], the IC50 in test [1] came out at 590 nM; in the test with A549 cells (setting [6]), 13700 nM; in test [4] (setting [7]) it was 590 nM; in test [4] (setting [8]), 590 nM. Besides, the MCC in test [2] amounted to 5.29 µM; in test [3], 5.29 µM; in test [5] it was 3520 nM.
For `COc1cc(Oc2ccc(-c3nc4ccc(C(=N)NC(C)C)cc4[nH]3)cc2F)ccc1-c1nc2ccc(C(=N)NC(C)C)cc2[nH]1` [K, 2-(3-Fluoro-4-(4-(6-(N-isopropylcarbamimidoyl)-1H-benzo[d]imidazol-2-yl)-3-methoxyphenoxy)phenyl)-N-isopropyl-1H-benzo[d]imidazole-6-carboximidamide], the IC50 turned out to be 140 nM in test [1] (trophozoites, n = 2); 4030 nM with A549 cells (human A549 cells, read-out: A549 cell IC50); 1100 nM in test [4] (setting [10]). Further, the MCC in test [2] (setting [9]) was found to be 7.89 µM; in test [3] (setting [9]), 9.65 µM; in test [5] (setting [9]) it was 7720 nM.
In the case of `CC(C)NC(=N)c1ccc2nc(-c3ccc(Oc4ccc(-c5nc6ccc(C(=N)NC(C)C)cc6[nH]5)c(F)c4F)cc3Br)[nH]c2c1` [Compound H, 2-(2-Bromo-4-(2,3-difluoro-4-(6-(N-isopropylcarbamimidoyl)-1H-benzo[d]imidazol-2-yl)phenoxy)phenyl)-N-isopropyl-1H-benzo[d]imidazole-6-carboximidamide], the IC50 in test [1] amounted to 100 nM; in the test on A549 cells (setting [6]), 3110 nM; in test [4] (setting [7]), 270 nM; in test [4] (setting [8]), 270 nM. In addition, the values for the MCC in test [2], in test [3] and in test [5] were 1.88 µM, 1.88 µM and 1880 nM, respectively.
`CC(C)NC(=N)c1ccc2nc(-c3ccc(Oc4ccc(-c5nc6ccc(C(=N)NC(C)C)cc6[nH]5)cc4Cl)cc3)[nH]c2c1` [Compound AJ]: the values for the half-inhibitory concentration (IC50) in test [1] and in test [4] (setting [8]) were 50 nM and 460 nM, respectively.
For the molecule `COc1ccc(-c2nc3ccc(-c4nc5ccc(C6=NCC(C)(C)CN6)cc5[nH]4)cc3[nH]2)cc1O` [Compound AR, 5-(6-(5,5-dimethyl-1,4,5,6-tetrahydropyrimidin-2-yl)-1H,3′H-[2,5′-bibenzo[d]imidazol]-2′-yl)-2-methoxyphenol], the IC50 in test [1] (trophozoites, n = 2) came out at 660 nM; in test [4] (setting [10]), 2010 nM.
The like results for `COc1cc(-c2nc3ccc(C(=N)NC(C)C)cc3[nH]2)ccc1Oc1c(F)cc(-c2nc3ccc(C(=N)NC(C)C)cc3[nH]2)cc1F` [Compound AB, 2-(3,5-Difluoro-4-(4-(6-(N-isopropylcarbamimidoyl)-1H-benzo[d]imidazol-2-yl)-2-methoxyphenoxy)phenyl)-N-isopropyl-1H-benzo[d]imidazole-6-carboximidamide] were, in that order, 260 nM and 1440 nM.
For `CN(C)CCNC(=O)c1ccc(-c2nc3ccc(-c4nc5ccc(C(=N)N)cc5[nH]4)cc3[nH]2)cc1` [Compound AK, 4-(6-carbamimidoyl-1H,3′H-[2,5′-bibenzo[d]imidazol]-2′-yl)-N-(2-(dimethylamino)ethyl)benzamide], the IC50 in test [1] (trophozoites, n = 2) came to 80 nM; in test [4] (setting [10]), 28800 nM.
The like results for `CC(C)NC(=N)c1ccc2nc(-c3ccc(Oc4c(F)cc(-c5nc6ccc(C(=N)NC(C)C)cc6[nH]5)cc4F)c(F)c3)[nH]c2c1` [AC, 2-(3,5-Difluoro-4-(2-fluoro-4-(6-(N-isopropylcarbamimidoyl)-1H-benzo[d]imidazol-2-yl)phenoxy)phenyl)-N-isopropyl-1H-benzo[d]imidazole-6-carboximidamide] were, in that order, 390 nM and 1030 nM.
On to `N=C(N)c1ccc(-c2ccc(-c3cc4cc(C(=N)N)ccc4[nH]3)cc2)cc1` [Compound AW], for which the concentration for half-maximal inhibition (IC50) in test [1] came to 350 nM; in test [4] (setting [8]) it was 13700 nM.
On the same counts, the results for `COc1cc(Oc2ccc(-c3nc4ccc(C(=N)NC(C)C)cc4[nH]3)cc2)ccc1-c1nc2ccc(C(=N)NC(C)C)cc2[nH]1` [AI] are 70 nM and 2920 nM.
On to `N=C(c1ccc2nc(-c3ccc(Oc4ccc(-c5nc6ccc(C(=N)N7CCSCC7)cc6[nH]5)cc4)cc3)[nH]c2c1)N1CCSCC1` [Compound BH], for which the IC50 in test [1] (trophozoites, n = 2) was found to be 500 nM; in test [4] (setting [10]), 17600 nM.
In the case of `N=C(c1ccc2nc(-c3ccc(Oc4ccc(-c5nc6ccc(C(=N)N7CCCCCC7)cc6[nH]5)cc4)cc3)[nH]c2c1)N1CCCCCC1` [BD], the concentration for half-maximal inhibition (IC50) came out at 350 nM in test [1] (trophozoites, n = 2) and 5710 nM in test [4] (setting [10]).
On the same counts, the results for `CC(C)NC(=N)c1ccc2nc(-c3ccc(Oc4ccc(-c5nc6ccc(C(=N)NC(C)C)cc6[nH]5)c(Cl)c4)cc3)[nH]c2c1` [Compound AG] are 50 nM and 310 nM.
Turning to `CC1CCN(C(=N)c2ccc3nc(-c4ccc(Oc5ccc(-c6nc7ccc(C(=N)N8CCC(C)CC8)cc7[nH]6)cc5)cc4)[nH]c3c2)CC1` [BF], the half-maximal inhibitory concentration (IC50) turned out to be 410 nM in test [1] (trophozoites, n = 2) and 3870 nM in test [4] (setting [10]).
